Read-outs that look alike come from different tables or passages of the source.
What was measured:
Sac. cerevisiae MY1027 = assay: Agar dilution assay, MIC; format: cell-based, Saccharomyces cerevisiae; settings: strain MY1027; yeast nitrogen base dextrose agar
Description: (§1) In separate operations, in vitro antifungal activity determinations were carried out with Compound IB and with Compound IC against a panel of filamentous and yeast-like fungi employing yeast nitrogen base dextrose agar medium. In carrying out the assay, the compound to be tested was solubilized in 10 percent dimethyl sulfoxide (DMSO) supplemented with one drop of Tween 20. Two-fold dilutions were made with sterile distilled water/10% DMSO to obtain final concentrations in the agar dilution assay plates ranging from 64 to 0.06 μg/ml in the operation with Compound IB and from 128 to 0.06 μg/ml in the operation with Compound IC.
(§2) Nystatin (commercially available antifungal agent) was used as a positive antifungal control.

Ca. rugosa MY1022 = assay: Agar dilution assay, MIC; format: cell-based, Candida rugosa; settings: strain MY1022; yeast nitrogen base dextrose agar
Description: as §1, §2

Cr. neoformans MY1146 = assay: Agar dilution assay, MIC; format: cell-based, Cryptococcus neoformans; settings: strain MY1146; yeast nitrogen base dextrose agar
Description: as §1, §2

Ca. albicans MY1055 = assay: Agar dilution assay, MIC; format: cell-based, Candida albicans; settings: strain MY1055; yeast nitrogen base dextrose agar
Description: as §1, §2

Ca. albicans MY1013 = assay: Agar dilution assay, MIC; format: cell-based, Candida albicans; settings: strain MY1013; yeast nitrogen base dextrose agar
Description: as §1, §2

Ca. albicans MY0992 = assay: Agar dilution assay, MIC; format: cell-based, Candida albicans; settings: strain MY0992; yeast nitrogen base dextrose agar
Description: as §1, §2

Ca. albicans MY1029 = assay: Agar dilution assay, MIC; format: cell-based, Candida albicans; settings: strain MY1029; yeast nitrogen base dextrose agar
Description: as §1, §2

Ca. tropicalis MY1012 = assay: Agar dilution assay, MIC; format: cell-based, Candida tropicalis; settings: strain MY1012; yeast nitrogen base dextrose agar
Description: as §1, §2

Ca. tropicalis MY1011 = assay: Agar dilution assay, MIC; format: cell-based, Candida tropicalis; settings: strain MY1011; yeast nitrogen base dextrose agar
Description: as §1, §2

[1] = tested on: Torulopsis glabrata MY1059; assay: Agar dilution assay, MIC; format: cell-based; settings: strain MY1059; yeast nitrogen base dextrose agar
Description: as §1, §2

Ca. parapsilosis MY1009 = assay: Agar dilution assay, MIC; format: cell-based; settings: strain MY1009; yeast nitrogen base dextrose agar
Description: as §1, §2

[2] = tested on: Penicillium italicum MF2819; assay: Agar dilution assay, MIC; format: cell-based; settings: strain MF2819; yeast nitrogen base dextrose agar
Description: as §1, §2

Ca. stellatoidea MY1017 = assay: Agar dilution assay, MIC; format: cell-based; settings: strain MY1017; yeast nitrogen base dextrose agar
Description: as §1, §2

Ca. krusei MY1020 = assay: Agar dilution assay, MIC; format: cell-based; settings: strain MY1020; yeast nitrogen base dextrose agar
Description: as §1, §2

Candida albicans MY1058 = assay: Agar dilution assay, MIC; format: cell-based; settings: strain MY1058; yeast nitrogen base dextrose agar
Description: as §1, §2

[3] = tested on: Cryptococcus neoformans MY1051; assay: Agar dilution assay, MIC; format: cell-based; settings: strain MY1051; yeast nitrogen base dextrose agar
Description: as §1, §2

Ca. guilliermondi MY1019 = assay: Agar dilution assay, MIC; format: cell-based; settings: strain MY1019; yeast nitrogen base dextrose agar
Description: as §1, §2

Ca. parapsilosis MY1010 = assay: Agar dilution assay, MIC; format: cell-based; settings: strain MY1010; yeast nitrogen base dextrose agar
Description: as §1, §2

[4] = tested on: Aspergillus fumigatus MF4839; assay: Agar dilution assay, MIC; format: cell-based; settings: strain MF4839; yeast nitrogen base dextrose agar
Description: as §1, §2

[5] = tested on: Ca. pseudotropicalis MY1040; assay: Agar dilution assay, MIC; format: cell-based, Candida pseudotropicalis; settings: strain MY1040; yeast nitrogen base dextrose agar
Description: as §1, §2

A. flavus MF0383 = assay: Agar dilution assay, MIC; format: cell-based, Aspergillus flavus; settings: strain MF0383; yeast nitrogen base dextrose agar
Description: as §1, §2

Cryptococcus albidus = assay: Antifungal disc diffusion assay; format: cell-based
Excerpt: (§3) The antifungal activity of the compounds may be detected in an antifungal assay employing disc diffusion methods against a panel of representative yeasts, filamentous fungi (molds) and bacteria.
(§4) The yeasts employed in the assay are Saccharomyces cerevisiae, Candida albicans, […], Candida tropicalis, Candida rugosa, Brettanomyces bruxellensis, Torulospora hansenii, Candida quilliermondi, Candida pseudotropicalis, Torulopsis glabrata, Cryptococcus albidus, and Cryptococcus laurentii.
(§5) For carrying out the assay, seeded assay plates are prepared in the following manner according to the type of assay strain.
(§6) Inocula for yeasts and bacterial strains are prepared from overnight broth cultures then diluted into potato dextrose agar to a final concentration of either 40 percent or 70 percent transmission at 660 nm.
(§7) The seeded agar media thus prepared are dispensed into petri dishes for assays (11 milliliters per dish).
(§8) The samples to be tested for production of antifungal agent are applied to 6.2 mm. filter paper discs (25 microliter/disc) and air dried at 24° C. When the sample to be tested is crude broth, it may be centrifuged prior to application. The discs bearing the material to be tested are then applied employing sterile conditions to the seeded assay plates and the samples rewet with 25 percent sterile aqueous dimethylsulfoxide (25 μl/disc). The assay plates are then incubated at either 28° C. or 37° C. for 24 hours. In one of the assays for Bacillus subtilis, the sample is applied to a disc previously impregnated with 4M potassium chloride at 25 μl/disc and then air dried.
(§9) Following incubation, the inhibition zones are measured and recorded. The measurements are made from the extreme edge where growth differs from the background zone. The growths are noted as to appearance as fuzzy edge and clear center, hazy throughout, slightly hazy, very hazy or ringed.

Candida tropicalis = assay: Antifungal disc diffusion assay; format: cell-based
Excerpt: as §3, §4, §5, §6, §7, §8, §9

Torulospora hansenii = assay: Antifungal disc diffusion assay; format: cell-based
Excerpt: as §3, §4, §5, §6, §7, §8, §9

[6] = tested on: Candida albicans (five strains); assay: Antifungal disc diffusion assay; format: cell-based; settings: five strains of Candida albicans
Excerpt: as §3, §4, §5, §6
For three strains of Candida albicans and one strain of Saccharomyces cerevisiae, sterile saline is employed in place of potato dextrose broth. Assay plates are prepared by diluting the inoculum into appropriate molten agar medium, cooled to 45° C. to obtain a final concentration of 4 percent.
The seeded agar media thus prepared are dispensed into petri dishes for assays (11 milliliters per dish). […]
(§10) Following incubation, the inhibition zones are measured and recorded. […]

Ustilago maydis = assay: Antifungal disc diffusion assay; format: cell-based
Excerpt: as §3
(§11) The filamentous fungi used in the assay are Cochliobolus miyabeanus, Penicillium sp. (three strains), Aspergillus niger, Trichoderma sp., Phoma sp., Trichoderma lignorum, Fusarium oxysporum, Ustilago maydis, Ceratocystis ulmi, Alternaria solani, Verticillium serrae, Botrytis allii, Scopulariopsis communis, Cephalosporium sp., Cercospora beticola, […], Rhizomucor miehei, Aspergillus flavus and Aspergillus fumigatus.
as §5
(§12) Inocula for filamentous fungi are prepared by scraping the surface of stock plates maintained on potato dextrose agar with a moistened sterile dacron swab. The spores and mycelia are then suspended in 10 milliliters of sterile potato dextrose broth and adjusted to 70 percent transmission at 660 nm.
as §7
The samples to be tested for production of antifungal agent are applied to 6.2 mm. filter paper discs (25 microliter/disc) and air dried at 24° C. […]
as §10

[7] = tested on: panel of representative yeasts, filamentous fungi (molds) and bacteria; assay: Antifungal disc diffusion assay, panel; format: cell-based; settings: panel of organisms
Excerpt: as §3, §11, §4
The bacteria employed in the assay are Streptomyces sp., Acholeplasma laidlawii and Bacillus subtilis.
as §5, §12, §6
When the organism is Acholephasma laidlawii, it is suspended in brain heart infusion broth supplemented with 2.5 percent yeast extract and 20 percent heat inactivated horse serum, and the broth adjusted to a final concentration of 60 percent transmission at 660 nm. […]
as §10

Aspergillus niger = assay: Antifungal disc diffusion assay; format: cell-based
Excerpt: as §3, §11, §4, §5
Inocula for filamentous fungi are prepared by scraping the surface of stock plates maintained on potato dextrose agar with a moistened sterile dacron swab. […]
as §10

C[C@@H]1[C@H](O)[C@@H](C)/C=C/C=C/CC/C=C/C=C/C=C/C=C/C(O[C@H]2O[C@H](C)[C@@H](O)[C@H](N)[C@@H]2O)CC2O[C@](O)(CC(O)C(O)CCC(O)CC(O)CC(O)CC(=O)O[C@H]1C)CC(O)C2C(=O)O (stereo partly drawn) [Nystatin, reference compound]
Minimum Inhibitory Concentration (Sac. cerevisiae MY1027): 1 µg/mL | Minimum Inhibitory Concentration (Ca. rugosa MY1022): 4 µg/mL | Minimum Inhibitory Concentration (Cr. neoformans MY1146): 2 µg/mL | Minimum Inhibitory Concentration (Ca. albicans MY1055): 2 µg/mL | Minimum Inhibitory Concentration (Ca. albicans MY1013): 2 µg/mL | Minimum Inhibitory Concentration (Ca. albicans MY0992): 2 µg/mL | Minimum Inhibitory Concentration (Ca. albicans MY1029): 2 µg/mL | Minimum Inhibitory Concentration (Ca. tropicalis MY1012): > 128 µg/mL | Minimum Inhibitory Concentration (Ca. tropicalis MY1011): 2 µg/mL | Minimum Inhibitory Concentration [1]: 1 µg/mL | Minimum Inhibitory Concentration (Ca. parapsilosis MY1009): 4 µg/mL | Minimum Inhibitory Concentration [2]: 2 µg/mL | Minimum Inhibitory Concentration (Ca. stellatoidea MY1017): 2 µg/mL | Minimum Inhibitory Concentration (Ca. krusei MY1020): 2 µg/mL | Minimum Inhibitory Concentration (Candida albicans MY1058): 2 µg/mL | Minimum Inhibitory Concentration [3]: 2 µg/mL | Minimum Inhibitory Concentration (Ca. guilliermondi MY1019): 2 µg/mL | Minimum Inhibitory Concentration (Ca. parapsilosis MY1010): 2 µg/mL | Minimum Inhibitory Concentration [4]: 2 µg/mL | Minimum Inhibitory Concentration [5]: 1 µg/mL | Minimum Inhibitory Concentration (A. flavus MF0383): 2 µg/mL

CCCCCCC(O)CCCCCCC=CC(O)C(O)C(O)C(NC(=N)N)C(=O)O (stereo not drawn) [Compound IA, 2-guanidino-3,4,5,14-tetrahydroxy-6-eicosenoic acid]
antifungal activity (Cryptococcus albidus): good activity | antifungal activity (Candida tropicalis): good activity | antifungal activity (Torulospora hansenii): good activity | antifungal activity [6]: good activity | antifungal activity (Ustilago maydis): good activity | antifungal activity (Ustilago maydis; listed as I-A): especially good activity | antifungal activity [7]: good activity against almost all of the organisms | antifungal activity ([7]; listed as I-A): activity against a number of fungal organisms | antifungal activity (Aspergillus niger): good activity

Source: patent US5196327A, “Process for producing antifungal fermentation products and compositions thereof” (Merck & Co., Inc., priority 1991, dated 1993)
